Measurements as given in patent publication US9133126B2, “Fluoroalkyl dibenzoazepinone compounds” (BRISTOL-MYERS SQUIBB COMPANY, priority 2012, dated 2015).

Assay: in vitro
Conditions: human, liver microsomes, pH 7.4

| SMILES | half-life at 0.5 μM [min] |
| --- | --- |
| Cc1cccc2c1NC(=O)[C@@H](NC(=O)[C@H](CCC(F)(F)F)[C@H](CC1CC1)C(N)=O)c1cc(F)ccc1-2 [Example 11, (2R,3S)-3-(Cyclopropylmethyl)-N-((7S)-9-fluoro-4-methyl-6-oxo-6,7-dihydro-5H-dibenzo[b,d]azepin-7-yl)-2-(3,3,3-trifluoropropyl)succinamide] | ≥ 40 |
| Cc1cccc2c1NC(=O)[C@@H](NC(=O)[C@H](CCC(F)(F)F)[C@H](CCC(F)(F)F)C(N)=O)c1cc(F)ccc1-2 [Example 10, (2R,3S)-N-((7S)-9-Fluoro-4-methyl-6-oxo-6,7-dihydro-5H-dibenzo[b,d]azepin-7-yl)-2,3-bis(3,3,3-trifluoropropyl)succinamide] | ≥ 40 |
| CCC[C@H](C(N)=O)[C@@H](CCC(F)(F)F)C(=O)N[C@@H]1C(=O)Nc2ccccc2-c2ccccc21 [Example 2, (2R,3S)-N-((7S)-6-Oxo-6,7-dihydro-5H-dibenzo[b,d]azepin-7-yl)-3-propyl-2-(3,3,3-trifluoropropyl)succinamide] | ≥ 40 |
| NC(=O)[C@@H](CC1CC1)[C@@H](CCC(F)(F)F)C(=O)N[C@@H]1C(=O)Nc2ccccc2-c2ccccc21 [Example 3, (2R,3S)-3-(Cyclopropylmethyl)-N-((7S)-6-oxo-6,7-dihydro-5H-dibenzo[b,d]azepin-7-yl)-2-(3,3,3-trifluoropropyl)succinamide] | ≥ 40 |
| NC(=O)[C@@H](c1ccccc1)[C@@H](CCC(F)(F)F)C(=O)N[C@@H]1C(=O)Nc2ccccc2-c2ccccc21 [Example 6, (2R,3R)-N-((7S)-6-Oxo-6,7-dihydro-5H-dibenzo[b,d]azepin-7-yl)-3-phenyl-2-(3,3,3-trifluoropropyl)succinamide] | ≥ 40 |
| NC(=O)[C@@H](CC1CC(F)(F)C1)[C@@H](CCC(F)(F)F)C(=O)N[C@@H]1C(=O)Nc2ccccc2-c2ccccc21 [Example 7, (2R,3S)-3-((3,3-difluorocyclobutyl)methyl)-N-((7S)-6-oxo-6,7-dihydro-5H-dibenzo[b,d]azepin-7-yl)-2-(3,3,3-trifluoropropyl)succinamide] | ≥ 40 |
| CCC[C@@H](C(=O)N[C@@H]1C(=O)Nc2ccccc2-c2ccccc21)[C@H](CCC(F)(F)F)C(N)=O [Example 4, (2R,3S)-N-((7S)-6-Oxo-6,7-dihydro-5H-dibenzo[b,d]azepin-7-yl)-2-propyl-3-(3,3,3-trifluoropropyl)succinamide] | ≥ 40 |
| NC(=O)[C@@H](CC1CC1)[C@@H](CCC(F)(F)F)C(=O)N[C@@H]1C(=O)Nc2c(F)cccc2-c2ccccc21 [Example 5, (2R,3S)-3-(Cyclopropylmethyl)-N-((7S)-4-fluoro-6-oxo-6,7-dihydro-5H-dibenzo[b,d]azepin-7-yl)-2-(3,3,3-trifluoropropyl)succinamide] | ≥ 40 |
| CCC[C@H](C(N)=O)[C@@H](CCC(F)(F)F)C(=O)N[C@@H]1C(=O)Nc2c(F)cccc2-c2ccccc21 [Example 9, (2R,3S)-N-(4-Fluoro-6-oxo-6,7-dihydro-5H-dibenzo[b,d]azepin-7-yl)-3-propyl-2-(3,3,3-trifluoropropyl)succinamide] | ≥ 40 |
| NC(=O)[C@@H](CCC(F)(F)F)[C@@H](CCC(F)(F)F)C(=O)N[C@@H]1C(=O)Nc2c(Cl)cccc2-c2ccccc21 [Example 8, (2R,3S)-N-(4-Chloro-6-oxo-6,7-dihydro-5H-dibenzo[b,d]azepin-7-yl)-2,3-bis(3,3,3-trifluoropropyl)succinamide] | ≥ 40 |
